Earlier results on two molecules are cited in article PMC9633261, “Preclinical evaluation and first in human study of Al^18F radiolabeled ODAP-urea-based PSMA targeting ligand for PET imaging of prostate cancer” (Frontiers in Oncology, 2022).

Read-outs that look alike come from different tables or passages of the source.

For the molecule `O=C(O)CC[C@H](NC(=O)N[C@@H](CCCCNC(=O)c1ccc([18F])nc1)C(=O)O)C(=O)O` [^18F-DCFPyL], where the note is “ref [39]”, the absorbed dose kidneys is 0.0945 mGy/MBq.
With `O=C([O-])CN(CCN(CC(=O)[O-])Cc1cc(CCC(=O)NCCCCCC(=O)NCCCC[C@H](NC(=O)N[C@@H](CCC(=O)O)C(=O)O)C(=O)O)ccc1[O-])Cc1cc(CCC(=O)O)ccc1[O-].[68Ga+3].[OH3+]` [^68Ga-PSMA-11], the absorbed dose kidneys was 0.262 mGy/MBq (reported by Afshar-Oromieh et al. ref [37]) and 0.121 mGy/MBq (reported by Pfob et al. ref [38]).
